Assay: solvent given as SMILES

CCCCCCC
Settings	solvation free energy, 298 K [kcal/mol]
in BrC(Br)C(Br)Br	-3.34
in Brc1ccccc1	-4.35
in C1CCC(C2CCCCC2)CC1	-4.48
in C1CCCCC1	-4.83
in C1CCOC1	-4.58
in C1COCCO1	-3.86
in C=CCCCC	-4.71
in C=CCCCCCC	-4.63
in C=CCCCCCCCC	-4.55
in C=CCCCCCCCCCCCCCC	-4.24
in CC1CCS(=O)(=O)C1	-2.68
in CC1COC(=O)O1	-2.54
in CC#N	-3.18
in CC(=O)CC(C)C	-4.36
in CC(=O)N(C)C	-3.36
in CC(=O)O	-3.43
in CC(=O)c1ccccc1	-3.69
in CC(C)(C)O	-3.96
in CC(C)=O	-3.84
in CC(C)CC(C)(C)C	-4.6
in CC(C)CCCC(C)CCCC(C)CCCCC(C)CCCC(C)CCCC(C)C	-4.16
in CC(C)CCO	-3.97
in CC(C)CO	-3.92
in CC(C)O	-3.81
in CC(C)OC(C)C	-4.63
in CC(O)CO	-2.33
in CCBr	-4.71
in CCC(C)=O	-4.12
in CCCC#N	-3.69
in CCCC(=O)OCC	-4.35
in CCCC(C)=O	-4.17
in CCCC(C)O	-3.99
in CCCCC	-4.77
in CCCCC(CC)COC(=O)CCCCC(=O)OCC(CC)CCCC	-4.01
in CCCCC(CC)COC(=O)c1ccccc1C(=O)OCC(CC)CCCC	-3.79
in CCCCCC	-4.77
in CCCCCC(C)=O	-4.2
in CCCCCCCC	-4.62
in CCCCCCCCC	-4.57
in CCCCCCCCC=CCCCCCCCC(=O)OCC(COC(=O)CCCCCCCC=CCCCCCCCC)OC(=O)CCCCCCCC=CCCCCCCCC	-4.09
in CCCCCCCCCC	-4.53
in CCCCCCCCCCCC	-4.43
in CCCCCCCCCCCCCCCC	-4.34
in CCCCCCCCCCCCO	-3.99
in CCCCCCCCO	-4.02
in CCCCCCO	-4
in CCCCCCOC(C)=O	-4.27
in CCCCCl	-4.61
in CCCCN(C=O)CCCC	-3.9
in CCCCO	-3.95
in CCCCOC(=O)c1ccccc1C(=O)OCCCC	-3.88
in CCCCOC(C)=O	-4.23
in CCCCOCCCC	-4.57
in CCCCl	-4.81
in CCCO	-3.83
in CCN1CCCC1=O	-3.49
in CCN(CC)C(C)=O	-3.74
in CCN(CC)CC	-4.68
in CCNC(C)=O	-3.51
in CCNC=O	-3.25
in CCO	-3.7
in CCOC(=O)c1ccccc1C(=O)OCC	-3.35
in CCOC(C)(C)C	-4.62
in CCOC(C)=O	-4.09
in CCOCC	-4.66
in CCOCCO	-3.57
in CCOCCOCCOCC	-4.04
in CCOc1ccccc1	-4.15
in CN1CCCC1=O	-3.2
in CN1CCCCC1=O	-3.41
in CN1CCN(C)C1=O	-3.1
in CN(C)C=O	-3.16
in CN(C)P(=O)(N(C)C)N(C)C	-3.67
in CNC(C)=O	-3.34
in CNC=O	-2.85
in CO	-3.39
in COC(C)(C)C	-4.68
in COC(C)=O	-3.89
in COCCO	-3.24
in COCCOCCOCCOCCOC	-3.41
in COc1ccccc1	-4.06
in CS(C)=O	-2.27
in Cc1ccc(C)cc1	-4.58
in Cc1cccc(O)c1	-3.53
in Cc1ccccc1	-4.57
in Cc1ccccn1	-4.16
in ClC(Cl)(Cl)Cl	-4.81
in ClC(Cl)Cl	-4.64
in ClCCCl	-4.09
in ClCCl	-4.45
in Clc1ccccc1	-4.56
in FC(F)(F)C(F)(F)C(F)(F)C(F)(F)C(F)(F)C(F)(F)C(F)(F)C(F)(F)F	-2.98
in FC(F)(F)C(F)(F)C(F)(F)C(F)(F)C(F)(F)C(F)(F)C(F)(F)F	-3.2
in FC(F)(F)C(F)(F)C(F)(F)C(F)(F)C(F)(F)C(F)(F)F	-3.06
in Fc1ccccc1	-4.51
in ICI	-2.72
in N#CCCCCC#N	-2.45
in N#CCCOCCC#N	-1.99
in N#Cc1ccccc1	-3.76
in NC=O	-0.97
in NCCO	-1.34
in Nc1ccccc1	-2.99
in O=C1CCCCC1	-4
in O=C1CCCO1	-2.72
in O=C(O)C(Cl)Cl	-3.36
in O=CN1CCOCC1	-2.52
in O=Cc1ccco1	-2.96
in OCCCCCO	-2.53
in OCCCCO	-2.45
in OCCCO	-2.09
in OCCO	-1.22
in OCCOCCO	-1.9
in OCCOCCOCCO	-1.97
in OCCOCCOCCOCCO	-2.13
in OCCS	-2.46
in OCCc1ccccc1	-3.37
in OCc1ccccc1	-3.24
in OCc1ccco1	-2.87
in S=C=S	-4.76
in c1ccc2c(c1)CCCC2	-4.37
in c1ccc2ncccc2c1	-3.86
in c1ccc(C2CCCCC2)cc1	-4.33
in c1ccccc1	-4.55
in c1ccncc1	-3.9

Nc1ccc(S(=O)(=O)Nc2ccccn2)cc1
Settings	solvation free energy, 298 K [kcal/mol]
in O	-18.7

C=CCCC(C)C
Settings	solvation free energy, 298 K [kcal/mol]
in C=CCCCCCCCCCCCCCC	-3.87
in O	1.77

O=P(c1ccccc1)(c1ccccc1)c1ccccc1
Settings	solvation free energy, 298 K [kcal/mol]
in O	-17

CCCOC(=O)CC
Settings	solvation free energy, 298 K [kcal/mol]
in O	-2.45

CCc1cccnc1
Settings	solvation free energy, 298 K [kcal/mol]
in O	-4.59

O=[N+]([O-])c1c(Cl)c(Cl)c(Cl)c(Cl)c1Cl
Settings	solvation free energy, 298 K [kcal/mol]
in CCCCCCCCC=CCCCCCCCC(=O)OCC(COC(=O)CCCCCCCC=CCCCCCCCC)OC(=O)CCCCCCCC=CCCCCCCCC	-10.5

Clc1cccc(Cl)c1Cl
Settings	solvation free energy, 298 K [kcal/mol]
in CCCCCC	-6.92
in CCCCCCCCC=CCCCCCCCC(=O)OCC(COC(=O)CCCCCCCC=CCCCCCCCC)OC(=O)CCCCCCCC=CCCCCCCCC	-7.12
in CCCCCCCCO	-7.08
in O	-1.24

O=C(c1ccccc1)N(O)c1ccccc1
Settings	solvation free energy, 298 K [kcal/mol]
in O	-11.3

CN(C)C=O
Settings	solvation free energy, 298 K [kcal/mol]
in C1CCOC1	-5.99
in C1COCCO1	-6.17
in CC(C)=O	-6.43
in CCC(C)=O	-6.41
in CCCCCCCCCCCCCCCC	-3.88
in CCCCCCCCO	-5.95
in CCOC(C)=O	-6.1
in ClC(Cl)(Cl)Cl	-4.73
in O	-7.77
in [2H]O[2H]	-7.47
in c1ccccc1	-6.19

COc1ccccc1N
Settings	solvation free energy, 298 K [kcal/mol]
in O	-6.12

CCCCCCCCCC(=O)c1c(C)[nH]n(-c2ccccc2)c1=O
Settings	solvation free energy, 298 K [kcal/mol]
in O	-8.46

CC(C)C(C)C
Settings	solvation free energy, 298 K [kcal/mol]
in C=CCCCCCCCCCCCCCC	-3.31
in CC#N	-2.4
in CCCCCCCCCCCCCCCC	-3.41
in CCCCCCCCCCCCO	-3.07
in CCCCCO	-3.15
in CCCCO	-3.07
in O	2.36

COc1c(O)c(OC)c(Cl)c(C=O)c1Cl
Settings	solvation free energy, 298 K [kcal/mol]
in O	-8.68

c1ccc2cc3ccccc3cc2c1
Settings	solvation free energy, 298 K [kcal/mol]
in Brc1ccccc1	-11.6
in C1CCOC1	-11.9
in C1COCCO1	-11.5
in CC(=O)N(C)C	-11.5
in CC(C)(C)O	-9.71
in CC(C)=O	-11.2
in CC(C)CC(C)(C)C	-9.93
in CC(C)CC(C)O	-9.89
in CC(C)CCCC(C)CCO	-10.2
in CC(C)CCO	-9.93
in CC(C)CO	-9.77
in CC(C)O	-10
in CC(C)OC(C)C	-10.5
in CC(C)OCCO	-10.8
in CC(O)COC(C)(C)C	-10.5
in CCC(C)(C)O	-9.99
in CCC(C)=O	-11.3
in CCC(C)O	-9.9
in CCCC(=O)OC	-11.2
in CCCC(C)CO	-10
in CCCC(C)O	-9.99
in CCCCC(CC)CO	-10.1
in CCCCCC	-10.2
in CCCCCCC	-10.2
in CCCCCCCC	-10.2
in CCCCCCCCCC	-10.3
in CCCCCCCCCCO	-10.5
in CCCCCCCCO	-10.3
in CCCCCCCO	-10.3
in CCCCCCO	-10.3
in CCCCCO	-10.2
in CCCCCOC(C)=O	-11.1
in CCCCCl	-11.2
in CCCCO	-10.1
in CCCCOC(C)=O	-11.1
in CCCCOCCCC	-10.6
in CCCCOCCO	-10.8
in CCCO	-10
in CCCOC(C)=O	-11.1
in CCCOCCO	-10.8
in CCO	-10.4
in CCOC(C)=O	-11.1
in CCOCC	-10.9
in CCOCCO	-10.7
in CN1CCCC1=O	-12
in CN(C)C=O	-11.6
in CNC=O	-10.4
in CO	-9.89
in COC(C)(C)C	-10.7
in COC(C)=O	-11.1
in COC(C)CCO	-10.7
in COCCO	-10.8
in Cc1ccc(C)cc1	-11.2
in Cc1cccc(C)c1	-11.3
in Cc1ccccc1C	-11.5
in ClC(Cl)(Cl)Cl	-11.2
in ClC(Cl)Cl	-11.5
in ClCCl	-11.8
in Clc1ccccc1	-11.5
in Fc1ccccc1	-11.3
in N#Cc1ccccc1	-11.4
in O	-4.12
in O=C1CCCCC1	-11.6

CCCCCCC(=O)O
Settings	solvation free energy, 298 K [kcal/mol]
in O	-6.12

CCCCCC(C)O (configuration not stated)
Settings	solvation free energy, 298 K [kcal/mol]
in O	-3.88

Cc1cccc(C)c1C
Settings	solvation free energy, 298 K [kcal/mol]
in O	-1.15

Clc1cc2c(cc1Cl)Oc1c(Cl)c(Cl)c(Cl)c(Cl)c1O2
Settings	solvation free energy, 298 K [kcal/mol]
in O	-3.71

C=C(C)CC(C)(C)C
Settings	solvation free energy, 298 K [kcal/mol]
in CCC(C)=O	-4.34
in O	2.01
in OCCO	-1.42
in OCCOCCO	-2.19
in OCCOCCOCCO	-2.29

CCCCO[N+](=O)[O-]
Settings	solvation free energy, 298 K [kcal/mol]
in O	-2.09

CCCCCCCCCCOC(=O)c1ccccc1C(=O)OCCCCC
Settings	solvation free energy, 298 K [kcal/mol]
in O	-6.49

Clc1cc(-c2c(Cl)cc(Cl)c(Cl)c2Cl)c(Cl)c(Cl)c1Cl
Settings	solvation free energy, 298 K [kcal/mol]
in O	-4.61

From the CombiSolv-Exp solvation set (Vermeire and Green 2021)
